Reference: patent publication US20230159469A1, “NOVEL PHTHALAZINE DERIVATIVE HAVING ECTONUCLOEOTIDE PYROPHOSPHATASE/PHOSPHODIESTE RASE INHIBITORY ACTIVITY, AND USE THEREOF” (TXINNO BIOSCIENCE INC., priority 2020, published 2023)
pIC50: −log10 of the molar value. Structures can show the parent of a compound that is named as a salt.

These compounds were tested against T1, human recombinant ENPP1 (Homo sapiens, UniProt P22413) (assay: ENPP1 enzyme assay with cGAMP substrate (AMP-Glo luminescence)). Conditions: human recombinant ENPP1 3 ng/reaction, cGAMP 5 μM, 37° C. 90 minutes, read-out: Enzymatic activity (ENPP1 IC50).
T1 construct: purchased R & D systems
T1 sequence (P22413 1-925): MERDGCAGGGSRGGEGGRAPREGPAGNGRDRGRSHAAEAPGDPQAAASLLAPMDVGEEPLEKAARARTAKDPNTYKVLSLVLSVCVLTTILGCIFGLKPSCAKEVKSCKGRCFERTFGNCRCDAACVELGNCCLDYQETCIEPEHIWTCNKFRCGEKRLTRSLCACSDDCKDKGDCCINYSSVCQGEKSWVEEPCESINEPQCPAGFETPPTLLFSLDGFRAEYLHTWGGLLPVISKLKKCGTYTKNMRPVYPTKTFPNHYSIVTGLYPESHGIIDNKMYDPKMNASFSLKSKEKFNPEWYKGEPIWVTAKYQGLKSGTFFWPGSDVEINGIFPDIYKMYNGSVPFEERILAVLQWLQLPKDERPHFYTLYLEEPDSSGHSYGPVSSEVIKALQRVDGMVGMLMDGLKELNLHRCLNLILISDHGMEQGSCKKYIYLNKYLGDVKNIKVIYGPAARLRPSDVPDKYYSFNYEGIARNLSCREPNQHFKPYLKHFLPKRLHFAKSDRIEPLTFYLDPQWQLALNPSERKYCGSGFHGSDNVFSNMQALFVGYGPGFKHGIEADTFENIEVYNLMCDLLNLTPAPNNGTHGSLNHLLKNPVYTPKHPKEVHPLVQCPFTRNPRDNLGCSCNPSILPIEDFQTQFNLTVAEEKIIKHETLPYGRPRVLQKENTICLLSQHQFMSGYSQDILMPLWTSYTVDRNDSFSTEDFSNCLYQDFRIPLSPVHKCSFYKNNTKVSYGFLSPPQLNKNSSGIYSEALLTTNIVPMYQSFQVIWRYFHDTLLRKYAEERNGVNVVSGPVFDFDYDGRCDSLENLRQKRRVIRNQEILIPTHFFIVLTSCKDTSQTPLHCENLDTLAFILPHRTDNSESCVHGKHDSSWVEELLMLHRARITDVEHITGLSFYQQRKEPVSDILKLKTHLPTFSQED
Type: biochemical
Method in brief: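 Human ENPP1 hydrolysis of 5 μM cGAMP was run for 90 min at 37° C in 50 mM Tris pH 8.5, 250 mM NaCl, 0.5 mM CaCl2, 1 μM ZnCl2, 5% glycerol, 1% DMSO. AMP product was quantified by AMP-Glo luminescence; IC50 came from 3-parameter fits of % residual activity, averaged over at least two runs.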

Row | SMILES | pIC50
1 | COc1cc2c(Cc3cccc(NS(N)(=O)=O)c3)n[nH]c(=O)c2cc1OC [Example 178, (N-(3-((6,7-dimethoxy-4-oxo-3,4-dihydrophthalazin-1-yl)methyl)phenyl)sulfamide hydrochloride] | < 5.00
2 | COc1cc2c(Cc3cccc(NS(N)(=O)=O)c3)nn(C)c(=O)c2cc1OC [Example 179, N-(3-((6,7-dimethoxy-3-methyl-4-oxo-3,4-dihydrophthalazin-1-yl)methyl)phenyl)sulfamide hydrochloride] | < 5.00
3 | NS(=O)(=O)Nc1ccc(Cc2n[nH]c(=O)c3ccccc23)cc1 [Example 180, N-(4-((4-oxo-3,4-dihydrophthalazin-1-yl)methyl)phenyl)sulfamide hydrochloride] | > 6.00
4 | Cn1nc(Cc2ccc(NS(N)(=O)=O)cc2)c2ccccc2c1=O [Example 181, N-(4-((3-methyl-4-oxo-3,4-dihydrophthalazin-1-yl)methyl)phenyl)sulfamide hydrochloride] | > 6.00
5 | COc1cc2c(Cc3ccc(NS(N)(=O)=O)cc3)n[nH]c(=O)c2cc1OC [Example 182, N-(4-((6,7-dimethoxy-4-oxo-3,4-dihydrophthalazin-1-yl)methyl)phenyl)sulfamide hydrochloride] | > 6.00
6 | COc1cc2c(Cc3ccc(NS(N)(=O)=O)cc3)nn(C)c(=O)c2cc1OC [Example 183, N-(4-((6,7-dimethoxy-3-methyl-4-oxo-3,4-dihydrophthalazin-1-yl)methyl)phenyl)sulfamide hydrochloride] | > 6.00
7 | CN(c1ccc(Cc2n[nH]c(=O)c3ccccc23)cc1)S(N)(=O)=O [Example 184, N-methyl-N-(4-((4-oxo-3,4-dihydrophthalazin-1-yl)methyl)phenyl)sulfamide hydrochloride] | 5.00 to 6.00
8 | COc1cc2c(Cc3ccc(N(C)S(N)(=O)=O)cc3)n[nH]c(=O)c2cc1OC [Example 185, N-(4-((6,7-dimethoxy-4-oxo-3,4-dihydrophthalazin-1-yl)methyl)phenyl)-N-methylsulfamide hydrochloride] | > 6.00
9 | COc1cc2c(Cc3ccc(N(C)S(N)(=O)=O)cc3)nn(C)c(=O)c2cc1OC [Example 186, N-(4-((6,7-dimethoxy-3-methyl-4-oxo-3,4-dihydrophthalazin-1-yl)methyl)phenyl)-N-methylsulfamide hydrochloride] | > 6.00
10 | COc1cc2c(Cc3ccc4c(c3)CCN4S(N)(=O)=O)n[nH]c(=O)c2cc1OC [Example 187, 5-((6,7-dimethoxy-4-oxo-3,4-dihydrophthalazin-1-yl)methyl)indoline-1-sulfonamide hydrochloride] | > 6.00
11 | COc1cc2c(Cc3ccc4c(c3)CCN4S(N)(=O)=O)nn(C)c(=O)c2cc1OC [Example 188, 5-((6,7-dimethoxy-3-methyl-4-oxo-3,4-dihydrophthalazin-1-yl)methyl)indoline-1-sulfonamide hydrochloride] | > 6.00
12 | NS(=O)(=O)Nc1ccc(Cc2n[nH]c(=O)c3ccccc23)c(F)c1 [Example 189, N-(3-fluoro-4-((4-oxo-3,4-dihydrophthalazin-1-yl)methyl)phenyl)sulfamide hydrochloride] | > 6.00
13 | NS(=O)(=O)Nc1ccc(Cc2n[nH]c(=O)c3ccccc23)cc1F [Example 190, N-(2-fluoro-4-((4-oxo-3,4-dihydrophthalazin-1-yl)methyl)phenyl)sulfamide hydrochloride] | > 6.00
14 | NS(=O)(=O)Nc1ccc(Cc2n[nH]c(=O)c3ccccc23)c(C(F)(F)F)c1 [Example 191, N-(3-(trifluorobenzylmethyl)-4-((4-oxo-3,4-dihydrophthalazin-1-yl)methyl)phenyl)sulfamide hydrochloride] | > 6.00
15 | NS(=O)(=O)Nc1ccc(Cc2n[nH]c(=O)c3ccccc23)cc1C(F)(F)F [Example 192, N-(2-(trifluorobenzylmethyl)-4-((4-oxo-3,4-dihydrophthalazin-1-yl)methyl)phenyl)sulfamide hydrochloride] | > 6.00
16 | COc1cc2c(Cc3cccc(Br)c3)n[nH]c(=O)c2cc1OC [Example 193] | < 5.00

Other lines, results leading:

Row | pIC50 | SMILES
17 | < 5.00 | COc1cc2c(Cc3ccc(Br)cc3)n[nH]c(=O)c2cc1OC [Example 194, 4-(4-bromobenzyl)-6,7-dimethoxyphthalazin-1(2H)-one]
18 | < 5.00 | CS(=O)(=O)NCc1ccc(-c2n[nH]c(=O)c3ccccc23)cc1 [Example 195, N-(4-(4-oxo-3,4-dihydrophthalazin-1-yl)benzyl)methanesulfonamide]
19 | < 5.00 | O=c1[nH]nc(-c2ccc(CNS(=O)(=O)C3CC3)cc2)c2ccccc12 [Example 196, N -(4-(4-oxo-3,4-dihydrophthalazin-1-yl)benzyl)cyclopropanesulfonamide]
20 | < 5.00 | Cc1ccc(S(=O)(=O)NCc2ccc(-c3n[nH]c(=O)c4ccccc34)cc2)cc1 [Example 197, 4-methyl-N-(4-(4-oxo-3,4-dihydrophthalazin-1-yl)benzyl)benzenesulfonamide]
21 | < 5.00 | O=c1[nH]nc(-c2ccc(CNS(=O)(=O)c3cccs3)cc2)c2ccccc12 [Example 198, N-(4-(4-oxo-3,4-dihydrophthalazin-1-yl)benzyl)thiophene-2-sulfonamide]
22 | < 5.00 | CNS(=O)(=O)Cc1ccc(-c2nn(C)c(=O)c3ccccc23)cc1 [Example 200, N methyl-1-(4-(3-methyl-4-oxo-3,4-dihydrophthalazin-1-yl)phenyl)methanesulfonamide]
23 | < 5.00 | Cn1nc(-c2ccc(CS(=O)(=O)N3CCOCC3)cc2)c2ccccc2c1=O [Example 201, 2-methyl-4-(4-((morpholinosulfonyl)methyl)phenyl)phthalazin-1 (2H)-one]
24 | 5.00 to 6.00 | Cn1nc(-c2ccc(CCS(N)(=O)=O)cc2)c2ccccc2c1=O [Example 202, 2-(4-(3-methyl-4-oxo-3,4-dihydrophthalazin-1-yl)phenyl)ethane-1-sulfonamide]
25 | < 5.00 | COc1cc2c(-c3ccc(CN)c(C(F)(F)F)c3)n[nH]c(=O)c2cc1OC [Example 203, 4-(4-(aminomethyl)-3-(trifluoromethyl)phenyl-6,7-dimethoxyphthalazin-1(2.8)-one hydrochloride]
